The text below walks through data of patent US20260273033A1, “NOVEL LIPID NANOPARTICLE FORMULATIONS FOR DELIVERY OF NUCLEIC ACIDS” (CureVac SE, priority 2023, published 2026).

A short description of data set [1]: Immune responses of mRNA vaccines in vivo, DPhyPE versus DSPC as neutral lipid. As to conditions: DPhyPE versus DSPC as neutral lipid in LNP compositions.
The conditions of data set [2]: in vivo; cited from earlier work.

For `CC(C)CCCC(C)CCCC(C)CCCC(C)CC(=O)OC[C@H](COP(=O)(O)OCCN)OC(=O)CC(C)CCCC(C)CCCC(C)CCCC(C)C` (stereo partly drawn) [DPhyPE, 1,2-diphytanoyl-sn-glycero-3-phosphoethanolamine], the “immune responses of mRNA vaccines in vivo, neutral lipid comparison” value in data set [1] is reported as “clear advantage over DSPC”.

Consider poly(2-methyl-2-oxazoline) [PMOZ], for which, in data set [2], the accumulation in tissue entry is reported as “no significant accumulation in tissue” and the excretion result is given as “rapidly excreted by the kidney”.
